Literature values in patent US9370632B2, “Nasal treatment delivery device for mixed carbon dioxide and saline” (CLOVER HILL HEALTHCARE, INC., priority 2012, dated 2016).

Tested on: subjects with SAR, nasal allergen challenge (grass or ragweed allergen)

sensation reported by subjects during exposure (during 20-second intranasal exposure to CO(2)): transient burning sensation
Structure (SMILES): O=C=O [CO(2), carbon dioxide]
ipsilateral secretion weights (20-second exposure to CO(2) 30 minutes before allergen challenge, compared with no treatment): numerically reduced | sneezes (20-second exposure to CO(2) 30 minutes before allergen challenge, compared with no treatment, 12 subjects with SAR, p=0.05): significant reduction | bilateral runny nose symptoms (20-second exposure to CO(2) 30 minutes before allergen challenge, compared with no treatment, p=0.01): significant reduction | contralateral secretion weights (reflex secretory response, primary outcome) (20-second exposure to CO(2) 30 minutes before allergen challenge, compared with no treatment, p=0.04): significant reduction | histamine levels in ipsilateral nasal secretions (after pretreatment with CO(2), increased significantly with sham treatment): did not increase
